Article PMC4841940 (Molecular cell, 2016)
“Also recorded” adds a separate entry of the source.

Columns and labels:
[1] = test system: AF9 recruitment to genes in RAW264.7 cells; assay: FLAG-AF9 ChIP-seq in RAW264.7 cells; assay type: cell-based, mouse; conditions: 10mM crotonate pre-treatment then LPS
[2] = test system: FLAG-AF9 (WT) recruitment in RAW264.7 cells; assay: FLAG-ChIP-qPCR, FLAG-AF9; assay type: cell-based, mouse; conditions: increasing concentrations of crotonate, then LPS; Rsad2, Il6, Ifit1, Cmpk2, Gbp2
[3] = test system: FLAG-AF9 (F59A) recruitment in RAW264.7 cells; assay: FLAG-ChIP-qPCR, FLAG-AF9; assay type: cell-based, mouse; conditions: increasing concentrations of crotonate, then LPS; Rsad2, Il6, Ifit1, Cmpk2, Gbp2
[4] = test system: RAW264.7 cells (parental); assay: qRT-PCR of crotonate-responsive genes, parental cells; assay type: cell-based, mouse; conditions: crotonate pre-treatment before LPS
[5] = test system: RAW264.7 cells, AF9 KO; assay: qRT-PCR of crotonate-responsive genes, AF9 knockout; assay type: cell-based, mouse; conditions: crotonate pre-treatment before LPS
[6] = test system: RAW264.7 cells, AF9KO + WT; assay: qRT-PCR, AF9 KO with wild type AF9 addback; assay type: cell-based, mouse; conditions: crotonate pre-treatment before LPS
[7] = test system: RAW264.7 cells, AF9KO + F59A; assay: qRT-PCR, AF9 KO with F59A addback; assay type: cell-based, mouse; conditions: crotonate pre-treatment before LPS
[8] = test system: histone crotonylation (H3K18cr) / crotonyl-CoA; conditions: ref Sabari et al., 2015, cited from earlier work
[9] = target: second bromodomain of BRD3 (UniProt Q15059); assay: ITC
Chain of UniProt Q15059 (Q15059 307-416): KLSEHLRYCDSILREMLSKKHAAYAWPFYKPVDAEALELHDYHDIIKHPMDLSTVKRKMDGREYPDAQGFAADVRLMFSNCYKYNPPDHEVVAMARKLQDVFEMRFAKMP

[10] = target: AF9 YEATS domain, wild type (UniProt P42568); assay: ITC
Chain of UniProt P42568 (P42568 1-138): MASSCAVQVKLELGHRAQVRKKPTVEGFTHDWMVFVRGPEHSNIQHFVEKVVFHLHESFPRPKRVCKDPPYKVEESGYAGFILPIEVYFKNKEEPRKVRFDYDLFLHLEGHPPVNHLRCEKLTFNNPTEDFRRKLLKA

Compound: C/C=C/C(=O)O [crotonate]
- FLAG-AF9 ChIP-seq signal ([1]; metagene analysis): FLAG-AF9 signal was higher with crotonate treatment only for crotonate responsive genes
- mean fold-change in FLAG-AF9 RPKM, crotonate unresponsive genes ([1]; ± 1kb TSS, 233 genes): 0.92 fold
- AF9 (WT) ChIP-qPCR signal [2]: AF9 signal increases with increasing concentrations of crotonate
- AF9 (F59A) ChIP-qPCR signal, crotonate [3]: the F59A mutant is unresponsive
- expression of Ccl3 (non-responsive gene) [4]: unaffected by crotonate pre-treatment
- crotonate response in AF9 KO cells [5]: significantly reduced response; also recorded: significantly reduced the crotonate response in our model system, but did not abolish it completely
- rescue of crotonate response, wild type AF9 addback [6]: addback of wild type AF9 but not mutant AF9 (F59A) rescued this reduction
- rescue of crotonate response, AF9 (F59A) addback [7]: not mutant AF9 (F59A) rescued this reduction
- effect on crotonyl-CoA and acetyl-CoA ([8]; cellular concentrations): selectively increases cellular concentrations of crotonyl-CoA, the high-energy donor of crotonyl, while leaving acetyl-CoA, the high-energy donor of acetyl, unaffected
- effect on Kcr vs Kac [8]: specifically enhances Kcr, and does not significantly affect Kac

Compound: H3K18bu peptide (acylation series of Figure 4C)
- fold reduced affinity against H3K18ac [9]: 38 fold

Compound: H3K18pr peptide (acylation series of Figure 4C)
- fold reduced affinity against H3K18ac [9]: 4 fold

Compound: histone H3_(1–15)K9ac peptide (from UniProt P68431 2-16)
- Kd [10]: 5 µM

Compound: histone H3_(1–15)K9su peptide (from UniProt P68431 2-16)
- Kd [10]: 500 µM
